The values that follow come from patent publication US20240342148A1, “METHODS OF TREATING FACIOSCAPULOHUMERAL MUSCULAR DYSTROPHY WITH LOSMAPIMOD” (Fulcrum Therapeutics, Inc., priority 2021, published 2024).

In data set [1] the test system is subjects with FSHD. The data set is described as follows: FSHD health index (FSHD-HI). Also noted: species or system human. Particulars: in vivo. As for the experimental part:
The FSHD health index questionnaire was administered at all visits except for Wk16. This is a FSHD-specific patient-reported measure of disease burden on activities of daily living, quality of life, and symptom prevalence and severity. It consists of a questionnaire with 116 items developed from qualitative interviews of patients followed by a national cross-sectional validation study. The measure consists of 14 subscales that measure a patient's perception of their ambulation and mobility, hand function, shoulder and arm function, emotional health, back/chest/abdomen strength, fatigue, pain, eating function, ability to do activities, communication ability, satisfaction in social situations, performance in social situations, body image and cognition. Scoring was performed centrally by the developer.

The test system of the next data set is patients with FSHD1. The data set is described as follows: Wearable sensor (Actimyo) physical activity, open label study. The data set is classed as in vivo, human. The settings on record: over 1 year treatment; Mild or Upper group compared to Lower or Both group. On the procedure: This study evaluated feasibility to monitor daily activity and assess functional outcomes using wearable sensor devices in an open label study (OLS) of losmapimod in facioscapulohumeral muscular dystrophy (FSHD). 14 patients with FSHD1 received 15 mg losmapimod twice per day for a 52 week open label treatment period.
Feasibility was measured by the reliability of the data over time and amount of background noise. The secondary objective was patients' compliance with using the wearable device.
Upper limb and lower limb mobility were evaluated with “Actimyo” made by Sysnav. Actimyo quantifies movements of patients with neuromuscular disorders such as Duchenne muscular dystrophy (DMD), Spinal amyotrophy (SMA), Parkinson's and records activity based on magneto-inertial navigation. Raw data from the sensors are loaded on to the internal memory of the docking station/charging unit, and transmitted daily via an internet connection to a remote storage platform. Participants are provided with two watch like sensors to measure movements: On the ankle for lower extremity movements like gait; and On the wrist for upper extremity movements like mobility. Two kinds of movements were evaluated: Free living movement, which was recorded by wearing two devices all day (12-16 hours); and Imposed movements (2 times per day), which were a set of movements evaluated twice daily.

Data set [2] is described as follows: Plasma losmapimod concentrations (PK), Phase 2b RCT. It counts as in vivo, human. Particulars: 15 mg orally BID. On the procedure: Blood samples for PK assessment (plasma losmapimod concentrations) were collected at D1, Wk4, Wk16, and Wk36 at the following time points: immediately pre-dose and 4 hours (±30 minutes) after administration of the study dose (approximate Cmax). PK samples were also taken, when feasible, after dosing during the Wk12, Wk24, and Wk48 visits, preferably ≥1 hour after dosing.
Plasma and muscle losmapimod concentrations were measured by 2 validated bioanalytical high-performance liquid chromatography methods by PPD, USA (PPD 2019).

The test system of data set [3] is subjects with FSHD. The data set is described as follows: FSHD-TUG. Further details: species or system human. Particulars: in vivo. As for the experimental part: (§1) TUG assessments were performed at all visits, except for Wk16. The TUG test is a simple test that is used to assess a subject's mobility and requires both static and dynamic balance. TUG is a validated instrument that measures the time that a person takes to rise from a chair, walk 3 meters, turn around, walk back to the chair, and sit down. Subjects used their regular footwear, and their customary walking aid (no walkers allowed). Patients were also timed in a modified test (FSHD TUG), where they started from a supine position, then sat up, completed the TUG, and lay down again.

Data set [4] deals with subjects with FSHD. The data set is described as follows: Timed Up and Go (TUG). Particulars: nonsignificant. The data set is classed as in vivo, human. On the procedure: as §1

In the case of `Cc1c(F)cc(C(=O)NC2CC2)cc1-c1ccc(C(=O)NCC(C)(C)C)cn1` [losmapimod, 6-(5-cyclopropylcarbamoyl-3-fluoro-2-methyl-phenyl)-N-(2,2-dimethylpropyl-)-nicotinamide], the FSHD-HI vs placebo entry with subjects with FSHD [1] is “no difference”. Also, the “Physical function as measured by gait velocity” value in the data set with patients with FSHD1 is listed as “tends to increase”. In addition, in data set [2] (pre-dose), the “Plasma concentrations of losmapimod pre-dose” value lay in the range of 25.2 to 34.4 ng/mL. For the same compound, in data set [2] (human, plasma, po, 4 h post-dose, read-out: Plasma concentrations of losmapimod 4 h post-dose (approximate Cmax)), the Cmax at 4 h is 66.4 to 91.8 ng/mL. Also, in the data set on subjects with FSHD [3], the FSHD-TUG vs placebo result is “no difference”. Further, in the data set with subjects with FSHD [4], the “Progression in TUG time” value is 0.16 s and the “TUG time difference vs placebo” value is reported as 0.58 s.
